Source: patent US20260176320A1, “MODULATORS OF G-PROTEIN COUPLED RECEPTORS” (priority 2018, published 2026)
Read-outs that look alike come from different tables or passages of the source. Square brackets hold non-standard residues; d marks the D form. Peptide text beside a SMILES is read from it. * marks the point of attachment. X1 = O=C(CSCC(=O)*)NCCN1C(=O)c2ccccc2C1=O; Aib = CC(C)(N)C(=O)O

What was measured:
Format in all cases: cell-based
GLP-1R [1] = target: T1, GLP-1R (Homo sapiens, UniProt P43220); test: HitHunter cAMP assay (GLP-1R); conditions: cAMP; for Emax: read-out: (Emax) GLP-1R
T1 sequence (P43220 24-463): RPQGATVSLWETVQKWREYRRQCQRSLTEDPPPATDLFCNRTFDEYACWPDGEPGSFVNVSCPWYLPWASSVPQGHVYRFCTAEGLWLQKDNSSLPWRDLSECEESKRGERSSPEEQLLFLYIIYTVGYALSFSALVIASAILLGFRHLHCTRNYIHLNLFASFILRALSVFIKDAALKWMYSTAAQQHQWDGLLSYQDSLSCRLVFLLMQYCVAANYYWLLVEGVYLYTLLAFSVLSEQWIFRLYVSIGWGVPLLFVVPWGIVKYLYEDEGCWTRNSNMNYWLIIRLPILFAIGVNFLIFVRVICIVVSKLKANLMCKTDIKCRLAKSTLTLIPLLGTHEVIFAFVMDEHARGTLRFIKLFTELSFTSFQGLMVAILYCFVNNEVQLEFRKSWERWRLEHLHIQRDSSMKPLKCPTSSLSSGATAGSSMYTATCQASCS
Method in brief: (§1)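 cAMP, luminescence read: agonist 22-pt 2× dilution in DMSO, duplicate, 30 min RT on 10,000 cells/well in 1×HBSS/10 mM HEPES/625 μM IBMX/0.2% BSA; anti-cAMP reagent 1 h RT dark, then O/N RT dark before read.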

GLP-1R [2] = target: T1, GLP-1R; test: PathHunter β-arrestin assay
Method in brief: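 Luminescence read-out of β-arrestin recruitment (enzyme-fragment complementation detection, 3 h at room temperature in the dark) after 90 min agonist stimulation at 37 °C. Agonists tested as 22-point 2× serial dilutions in duplicate, in medium containing 0.2% BSA.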

GIP-R = target: T2, GIP-R (Homo sapiens, UniProt P48546); test: HitHunter cAMP assay (GIP-R)
T2 sequence (P48546 22-466): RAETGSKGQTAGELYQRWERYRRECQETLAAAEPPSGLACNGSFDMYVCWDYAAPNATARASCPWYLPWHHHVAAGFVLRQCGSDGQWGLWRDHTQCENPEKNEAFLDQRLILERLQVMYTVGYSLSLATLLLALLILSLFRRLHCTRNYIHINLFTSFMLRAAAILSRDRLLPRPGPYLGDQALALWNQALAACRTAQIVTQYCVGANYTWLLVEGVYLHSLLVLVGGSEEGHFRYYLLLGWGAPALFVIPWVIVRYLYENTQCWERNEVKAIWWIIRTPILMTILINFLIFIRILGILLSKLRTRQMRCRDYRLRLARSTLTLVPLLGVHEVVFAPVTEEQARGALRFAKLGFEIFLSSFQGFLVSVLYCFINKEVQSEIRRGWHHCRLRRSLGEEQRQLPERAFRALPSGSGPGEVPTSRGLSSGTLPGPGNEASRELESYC
Method in brief: as §1

[3] = Table 3; cAMP; read-out: (Emax) GIP-R
[4] = Table 3A; cAMP; read-out: (Emax) GIP-R
[5] = Table 3, read-out: EC50 GLP-1R/nM
[6] = Table 3A, read-out: EC50 GLP-1R/nM
[7] = PathHunter β-arrestin assay, read-out: β-arrestin activity EC50
[8] = Table 3; cAMP; read-out: EC50 GIP-R/nM
[9] = Table 3A; cAMP; read-out: EC50 GIP-R/nM

SMILES	EC50 (GLP-1R [1]; EC50 GLP-1R/nM, Table 3) [nM]	EC50 (GLP-1R [1]; EC50 GLP-1R/nM, Table 3A) [nM]	Emax (GLP-1R [1]; Table 3) [%]	Emax (GLP-1R [1]; Table 3A) [%]	EC50 (GLP-1R [2]) [nM]	Emax (GIP-R; [3]) [%]	Emax (GIP-R; [4]) [%]	EC50 (GIP-R; read-out: EC50 GIP-R/nM; Table 3; cAMP) [nM]	EC50 (GIP-R; read-out: EC50 GIP-R/nM; Table 3A; cAMP) [nM]	EC50 (GLP-1R [1]; [5]) [nM]	EC50 (GLP-1R [1]; [6]) [nM]	EC50 (GLP-1R [2]; [7]) [nM]	EC50 (GIP-R; [8]) [nM]	EC50 (GIP-R; [9]) [nM]	Emax at 1 µM (GIP-R; read-out: (Emax) GIP-R at 1 μM, Table 3; cAMP; at 1 μM) [%]
CC[C@H](C)[C@H](NC(=O)[C@H](CO)NC(=O)[C@H](Cc1ccc(O)cc1)NC(=O)[C@H](CC(=O)O)NC(=O)[C@H](CO)NC(=O)[C@@H](NC(=O)[C@H](Cc1ccccc1)NC(=O)[C@@H](NC(=O)CNC(=O)[C@H](CCC(=O)O)NC(=O)CSCC(=O)NCCN1C(=O)c2ccccc2C1=O)[C@@H](C)O)[C@@H](C)O)C(=O)N[C@@H](Cc1ccc(O)cc1)C(=O)N[C@@H](CC(C)C)C(=O)N[C@@H](CC(=O)O)C(=O)N[C@@H](CCCNC(=N)N)C(=O)N[C@@H](CCC(N)=O)C(=O)N[C@@H](C)C(=O)N[C@@H](C)C(=O)NC(C)(C)C(=O)N[C@@H](CCC(=O)O)C(=O)N[C@@H](Cc1ccccc1)C(=O)N[C@H](C(=O)N[C@@H](CC(N)=O)C(=O)N[C@@H](Cc1c[nH]c2ccccc12)C(=O)N[C@@H](CC(C)C)C(=O)N[C@@H](CC(C)C)C(=O)N[C@@H](C)C(=O)NCC(=O)NCC(=O)N1CCC[C@H]1C(=O)N[C@@H](CO)C(=O)N[C@@H](CO)C(=O)NCC(=O)N[C@@H](C)C(=O)N1CCC[C@H]1C(=O)N1CCC[C@H]1C(=O)N1CCC[C@H]1C(=O)N[C@@H](CO)C(N)=O)C(C)C [Compound 190] (X1-EGTFTSDYSIYLDRQAA[Aib]EFVNWLLAGGPSSGAPPPS-NH2)	1 to 10	1 to 10	97 to 119	97 to 119	> 1000	88 to 119	88 to 119	0.1 to 10	0.1 to 10	–	–	–	–	–	–
CC[C@H](C)[C@H](NC(=O)[C@H](CO)NC(=O)[C@H](Cc1ccc(O)cc1)NC(=O)[C@H](CC(=O)O)NC(=O)[C@H](CO)NC(=O)[C@@H](NC(=O)[C@H](Cc1ccccc1)NC(=O)[C@@H](NC(=O)CNC(=O)[C@H](CCC(=O)O)NC(=O)CCCCC(=O)NCCN1C(=O)CSC1=O)[C@@H](C)O)[C@@H](C)O)C(=O)N[C@@H](Cc1ccc(O)cc1)C(=O)N[C@@H](CC(C)C)C(=O)N[C@@H](CC(=O)O)C(=O)N[C@@H](CCCCN)C(=O)N[C@@H](CCC(N)=O)C(=O)N[C@@H](C)C(=O)N[C@@H](C)C(=O)NC(C)(C)C(=O)N[C@@H](CCC(=O)O)C(=O)N[C@@H](Cc1ccccc1)C(=O)N[C@H](C(=O)N[C@@H](CC(N)=O)C(=O)N[C@@H](Cc1c[nH]c2ccccc12)C(=O)N[C@@H](CC(C)C)C(=O)N[C@@H](CC(C)C)C(=O)N[C@@H](C)C(=O)NCC(=O)NCC(=O)N1CCC[C@H]1C(=O)N[C@@H](CO)C(=O)N[C@@H](CO)C(=O)NCC(=O)N[C@@H](C)C(=O)N1CCC[C@H]1C(=O)N1CCC[C@H]1C(=O)N1CCC[C@H]1C(=O)N[C@@H](CO)C(=O)N[C@@H](CCCCN)C(N)=O)C(C)C [Compound 191]	–	–	97	97	–	68	68	–	–	1 to 10	1 to 10	> 1000	10 to 100	10 to 100	–
CC[C@H](C)[C@H](NC(=O)[C@H](CO)NC(=O)[C@H](Cc1ccc(O)cc1)NC(=O)[C@H](CC(=O)O)NC(=O)[C@H](CO)NC(=O)[C@@H](NC(=O)[C@H](Cc1ccccc1)NC(=O)[C@@H](NC(=O)CNC(=O)[C@H](CCC(=O)O)NC(=O)CCC(=O)NCCN1C(=O)CSC1=O)[C@@H](C)O)[C@@H](C)O)C(=O)N[C@@H](Cc1ccc(O)cc1)C(=O)N[C@@H](CC(C)C)C(=O)N[C@@H](CC(=O)O)C(=O)N[C@@H](CCCCN)C(=O)N[C@@H](CCC(N)=O)C(=O)N[C@@H](C)C(=O)N[C@@H](C)C(=O)NC(C)(C)C(=O)N[C@@H](CCC(=O)O)C(=O)N[C@@H](Cc1ccccc1)C(=O)N[C@H](C(=O)N[C@@H](CC(N)=O)C(=O)N[C@@H](Cc1c[nH]c2ccccc12)C(=O)N[C@@H](CC(C)C)C(=O)N[C@@H](CC(C)C)C(=O)N[C@@H](C)C(=O)NCC(=O)NCC(=O)N1CCC[C@H]1C(=O)N[C@@H](CO)C(=O)N[C@@H](CO)C(=O)NCC(=O)N[C@@H](C)C(=O)N1CCC[C@H]1C(=O)N1CCC[C@H]1C(=O)N1CCC[C@H]1C(=O)N[C@@H](CO)C(=O)N[C@@H](CCCCN)C(N)=O)C(C)C [Compound 192]	–	–	111	111	–	63	63	–	–	0.1 to 1	0.1 to 1	> 1000	10 to 100	10 to 100	–
CC[C@H](C)[C@H](NC(=O)[C@H](CO)NC(=O)[C@H](Cc1ccc(O)cc1)NC(=O)[C@H](CC(=O)O)NC(=O)[C@H](CO)NC(=O)[C@@H](NC(=O)[C@H](Cc1ccccc1)NC(=O)[C@@H](NC(=O)CNC(=O)[C@H](CCC(=O)O)NC(=O)CCCC(=O)NCCN1C(=O)CSC1=O)[C@@H](C)O)[C@@H](C)O)C(=O)N[C@@H](Cc1ccc(O)cc1)C(=O)N[C@@H](CC(C)C)C(=O)N[C@@H](CC(=O)O)C(=O)N[C@@H](CCCCN)C(=O)N[C@@H](CCC(N)=O)C(=O)N[C@@H](C)C(=O)N[C@@H](C)C(=O)NC(C)(C)C(=O)N[C@@H](CCC(=O)O)C(=O)N[C@@H](Cc1ccccc1)C(=O)N[C@H](C(=O)N[C@@H](CC(N)=O)C(=O)N[C@@H](Cc1c[nH]c2ccccc12)C(=O)N[C@@H](CC(C)C)C(=O)N[C@@H](CC(C)C)C(=O)N[C@@H](C)C(=O)NCC(=O)NCC(=O)N1CCC[C@H]1C(=O)N[C@@H](CO)C(=O)N[C@@H](CO)C(=O)NCC(=O)N[C@@H](C)C(=O)N1CCC[C@H]1C(=O)N1CCC[C@H]1C(=O)N1CCC[C@H]1C(=O)N[C@@H](CO)C(=O)N[C@@H](CCCCN)C(N)=O)C(C)C [Compound 193]	–	–	117	117	–	44	44	–	–	1 to 10	1 to 10	> 1000	10 to 100	10 to 100	–
CC[C@H](C)[C@H](NC(=O)[C@H](CO)NC(=O)[C@H](Cc1ccc(O)cc1)NC(=O)[C@H](CC(=O)O)NC(=O)[C@H](CO)NC(=O)[C@@H](NC(=O)[C@H](Cc1ccccc1)NC(=O)[C@@H](NC(=O)CNC(=O)[C@H](CCC(=O)O)NC(=O)COCC(=O)NCCN1C(=O)CSC1=O)[C@@H](C)O)[C@@H](C)O)C(=O)N[C@@H](Cc1ccc(O)cc1)C(=O)N[C@@H](CC(C)C)C(=O)N[C@@H](CC(=O)O)C(=O)N[C@@H](CCCCN)C(=O)N[C@@H](CCC(N)=O)C(=O)N[C@@H](C)C(=O)N[C@@H](C)C(=O)NC(C)(C)C(=O)N[C@@H](CCC(=O)O)C(=O)N[C@@H](Cc1ccccc1)C(=O)N[C@H](C(=O)N[C@@H](CC(N)=O)C(=O)N[C@@H](Cc1c[nH]c2ccccc12)C(=O)N[C@@H](CC(C)C)C(=O)N[C@@H](CC(C)C)C(=O)N[C@@H](C)C(=O)NCC(=O)NCC(=O)N1CCC[C@H]1C(=O)N[C@@H](CO)C(=O)N[C@@H](CO)C(=O)NCC(=O)N[C@@H](C)C(=O)N1CCC[C@H]1C(=O)N1CCC[C@H]1C(=O)N1CCC[C@H]1C(=O)N[C@@H](CO)C(=O)N[C@@H](CCCCN)C(N)=O)C(C)C [Compound 194]	–	–	98	98	–	–	–	–	–	1 to 10	1 to 10	> 1000	> 1000	> 1000	12
CC[C@H](C)[C@H](NC(=O)[C@H](CO)NC(=O)[C@H](Cc1ccc(O)cc1)NC(=O)[C@H](CC(=O)O)NC(=O)[C@H](CO)NC(=O)[C@@H](NC(=O)[C@H](Cc1ccccc1)NC(=O)[C@@H](NC(=O)CNC(=O)[C@H](CCC(=O)O)NC(=O)CSCC(=O)NCCN1C(=O)CSC1=O)[C@@H](C)O)[C@@H](C)O)C(=O)N[C@@H](Cc1ccc(O)cc1)C(=O)N[C@@H](CC(C)C)C(=O)N[C@@H](CC(=O)O)C(=O)N[C@@H](CCCCN)C(=O)N[C@@H](CCC(N)=O)C(=O)N[C@@H](C)C(=O)N[C@@H](C)C(=O)NC(C)(C)C(=O)N[C@@H](CCC(=O)O)C(=O)N[C@@H](Cc1ccccc1)C(=O)N[C@H](C(=O)N[C@@H](CC(N)=O)C(=O)N[C@@H](Cc1c[nH]c2ccccc12)C(=O)N[C@@H](CC(C)C)C(=O)N[C@@H](CC(C)C)C(=O)N[C@@H](C)C(=O)NCC(=O)NCC(=O)N1CCC[C@H]1C(=O)N[C@@H](CO)C(=O)N[C@@H](CO)C(=O)NCC(=O)N[C@@H](C)C(=O)N1CCC[C@H]1C(=O)N1CCC[C@H]1C(=O)N1CCC[C@H]1C(=O)N[C@@H](CO)C(=O)N[C@@H](CCCCN)C(N)=O)C(C)C [Compound 196]	–	–	93 to 104	93 to 104	–	41 to 86	41 to 86	–	–	0.1 to 10	0.1 to 10	> 1000	1 to 100	1 to 100	–
